This note sets out measurements from patent US8431563B2 (priority 2010, dated 2013).

Structures are written as SMILES. Where two headings read alike, the source gives them in different places.

Experiment [1] has as its target T1, interaction between glucokinase (GK) and glucokinase regulatory protein (GKRP) (Homo sapiens, UniProt Q14397).
T1 sequence (Q14397 1-625): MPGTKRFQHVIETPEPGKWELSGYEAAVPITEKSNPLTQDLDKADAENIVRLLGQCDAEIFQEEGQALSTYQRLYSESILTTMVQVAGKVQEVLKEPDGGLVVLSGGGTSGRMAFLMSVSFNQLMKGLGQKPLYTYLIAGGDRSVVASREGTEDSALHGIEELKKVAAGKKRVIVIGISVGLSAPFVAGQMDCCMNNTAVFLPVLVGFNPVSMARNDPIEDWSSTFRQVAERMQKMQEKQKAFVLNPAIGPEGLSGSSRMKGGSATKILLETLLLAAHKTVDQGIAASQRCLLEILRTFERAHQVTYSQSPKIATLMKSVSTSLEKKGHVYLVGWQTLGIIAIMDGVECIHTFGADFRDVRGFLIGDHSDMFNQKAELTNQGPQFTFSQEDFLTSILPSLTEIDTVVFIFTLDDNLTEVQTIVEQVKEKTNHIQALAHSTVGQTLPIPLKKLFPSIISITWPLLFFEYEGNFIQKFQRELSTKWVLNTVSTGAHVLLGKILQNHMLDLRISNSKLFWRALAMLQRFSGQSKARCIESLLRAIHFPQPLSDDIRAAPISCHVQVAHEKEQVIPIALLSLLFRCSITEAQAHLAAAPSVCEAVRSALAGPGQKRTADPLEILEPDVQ
The experiment is described as follows: biochemical. It is filed as binding. Conditions: read-out: GK-GKRP IC50 (Binding). The protocol: GK-GKRP Binding Assay Protocol
This assay is used to directly measure the interaction between glucokinase (GK) and glucokinase regulatory protein (GKRP). Begin by preparing the following solutions. Assay Buffer: 20 mM Tris, pH 7.5/0.05% BSA/1 mM DTT/1 μM sorbitol-6-phosphate. […] Combine the following reagents in a white 96-well half area plate. Pipette 14 μl of the diluted avi-tagged GKRP into each well. Add 1 μl of compound to be tested and incubate at room temperature for 20 minutes. After 20 minutes, add 5 μl of assay buffer containing 6 nM GK-fluorescein. […] Incubate in a dark room for 2 hours at room temperature. After 2 hours read the plate using an Envision plate reader (Perkin Elmer, Waltham Mass.).

In experiment [2] the target is T2, GKRP (Glucokinase Regulatory Protein) with human His-hepatic GK (Homo sapiens, UniProt Q14397).
T2 sequence (Q14397 1-625): T1 sequence (Q14397 1-625)
The experiment is described as follows: biochemical. The protocol:
GKRP LC MS/MS-2 Biochemical Assay
This assay is used to directly measure the formation of ^13C-glucose-6-phosphate from ^13C-glucose by LC MS/MS. Begin by preparing the following solutions: Compound Buffer (CB): 50 mM Tris, pH 7.5/4 mM MgCl2/6% DMSO/fresh 10 mM DTT from 1M frozen stock. Enzyme Buffer (EB): 50 mM Tris, pH 7.5/4 mM MgCl2/6% DMSO/fresh 0.1% BSA/fresh 0.01% Brij-35 (10% BSA and 1% Brij-35 stock). GK (Glucokinase) Working Stock (5×): Dilute human His-hepatic GK to 30 nM in EB buffer. […] After 30 minutes add 10 μl of GK Working Stock (5×). Re-seal the plate and incubate for another 30 minutes at room temperature while mixing. After the second 30 minutes, stop the reaction by the addition of 50 μl of 100% acetonitrile, seal, and mix for 5-10 minutes. Run 10 μl of this sample through the LC MS/MS (API 3200, Applied Biosystems, Carlsbad, Calif.).

The mark [3] stands for this setting: avi-tagged GKRP, GK-fluorescein, AlphaScreen beads.
Where [4] appears, read: GK-GKRP EC50 (LC MS/MS-2), 13C-glucose-6-phosphate formation, 280 nM GKRP (10×), 30 nM GK (5×).
Where [5] appears, read: 13C-glucose-6-phosphate formation, 280 nM GKRP (10×), 30 nM GK (5×), read-out: GK-GKRP EC50 (LC MS/MS-2).

What is called IC50 is the concentration at which inhibition is half-maximal. `CC(O)(c1ccc(N2CCN(S(=O)(=O)c3cccs3)C[C@@H]2CN2C3CCCC2CC(O)C3)cc1)C(F)(F)F` (mixture of isomers) [Example 141, 9-(((2S)-4-(2-thiophenylsulfonyl)-1-(4-(2,2,2-trifluoro-1-hydroxy-1-methylethyl)phenyl)-2-piperazinyl)methyl)-9-azabicyclo[3.3.1]nonan-3-ol (endo)]: the IC50 in experiment [1] (setting [3]) amounted to 11 nM. The EC50 in experiment [2] (setting [4]) worked out at 26 nM.

`CC(F)(c1ccc(N2CCN(S(=O)(=O)c3cccs3)C[C@@H]2CN2C3CCCC2CC(F)C3)cc1)C(F)(F)F` (mixture of isomers) [Example 142, 3-fluoro-9-(((2S)-1-(4-(1,2,2,2-tetrafluoro-1-methylethyl)phenyl)-4-(2-thiophenylsulfonyl)-2-piperazinyl)methyl)-9-azabicyclo[3.3.1]nonane (exo)]: the concentration for half-maximal inhibition (IC50) in experiment [1] (setting [3]) is 47 nM. Besides, the EC50 in experiment [2] (setting [5]) is 189 nM.

As to `CCC1COCCN1C[C@H]1CN(S(=O)(=O)c2cccs2)CCN1c1ccc(C(C)(O)C(F)(F)F)cc1` (mixture of isomers) [Example 143, 2-(4-((2S)-2-((3-ethyl-4-morpholinyl)methyl)-4-(2-thiophenylsulfonyl)-1-piperazinyl)phenyl)-1,1,1-trifluoro-2-propanol], in experiment [1] (setting [3]), the half-maximal inhibitory concentration (IC50) was 80 nM. For the same molecule, the EC50 in experiment [2] (setting [5]) came out at 36 nM.

`CC(O)(c1ccc(N2CCN(S(=O)(=O)c3cccs3)C[C@@H]2CN2CCC(=O)CC2)cc1)C(F)(F)F` (mixture of isomers) [Example 144, 1-(((2S)-4-(2-thiophenylsulfonyl)-1-(4-(2,2,2-trifluoro-1-hydroxy-1-methylethyl)phenyl)-2-piperazinyl)methyl)-4-piperidinone]: the IC50 in experiment [1] (setting [3]) was determined as 564 nM. For the same molecule, in experiment [2] (setting [5]), the EC50 came to 831 nM.

Take `CC(O)(c1ccc(N2CCN(S(=O)(=O)c3cccs3)C[C@@H]2CN2CCC[C@H](O)C2)cc1)C(F)(F)F` (mixture of isomers) [Example 145, (3S)-1-(((2S)-4-(2-thiophenylsulfonyl)-1-(4-(2,2,2-trifluoro-1-hydroxy-1-methylethyl)phenyl)-2-piperazinyl)methyl)-3-piperidinol]: in experiment [1] (setting [3]), the IC50 was found to be 628 nM. Further, the EC50 in experiment [2] (setting [5]) came to 880 nM.

For `CC1(C)C(=O)NCCN1C[C@H]1CN(S(=O)(=O)c2cccs2)CCN1c1ccc(C(C)(O)C(F)(F)F)cc1` (mixture of isomers) [Example 180, 3,3-dimethyl-4-(((2S)-4-(2-thiophenylsulfonyl)-1-(4-(2,2,2-trifluoro-1-hydroxy-1-methylethyl)phenyl)-2-piperazinyl)methyl)-2-piperazinone], the IC50 in experiment [1] (setting [3]) was found to be 22 nM. Moreover, the EC50 in experiment [2] (setting [5]) came out at 51 nM.

With `C[C@H]1C(=O)NCCN1C[C@H]1CN(S(=O)(=O)c2cccs2)CCN1c1ccc(C(C)(O)C(F)(F)F)cc1` (mixture of isomers) [Example 182, (3S)-3-methyl-4-(((2S)-4-(2-thiophenylsulfonyl)-1-(4-(2,2,2-trifluoro-1-hydroxy-1-methylethyl)phenyl)-2-piperazinyl)methyl)-2-piperazinone], the concentration for half-maximal inhibition (IC50) in experiment [1] (setting [3]) stood at 46 nM. For the same molecule, the EC50 in experiment [2] (setting [5]) stood at 69 nM.

Consider `CC1CNC(=O)CN1C[C@H]1CN(S(=O)(=O)c2cccs2)CCN1c1ccc(C(C)(O)C(F)(F)F)cc1` (mixture of isomers) [Example 183, 5-methyl-4-(((2S)-4-(2-thiophenylsulfonyl)-1-(4-(2,2,2-trifluoro-1-hydroxy-1-methylethyl)phenyl)-2-piperazinyl)methyl)-2-piperazinone], for which the half-maximal inhibitory concentration (IC50) in experiment [1] (setting [3]) came out at 171 nM. For the same molecule, in experiment [2] (setting [5]), the EC50 came out at 287 nM.

As for `CC(O)(c1ccc(N2CCN(S(=O)(=O)c3cccs3)C[C@@H]2CSc2ccccc2)cc1)C(F)(F)F` (mixture of isomers) [Example 186, 1,1,1-trifluoro-2-(4-((2R)-2-((phenylsulfanyl)methyl)-4-(2-thiophenylsulfonyl)-1-piperazinyl)phenyl)-2-propanol], the IC50 in experiment [1] was 14 nM. Also, in experiment [2] (read-out: GK-GKRP EC50 (LC MS/MS-2)), the EC50 is 24 nM.

`CC(O)(c1ccc(N2CCN(S(=O)(=O)c3cccs3)C[C@@H]2CSc2cccc(F)c2)cc1)C(F)(F)F` (mixture of isomers) [Example 188, 1,1,1-trifluoro-2-(4-((2R)-2-(((3-fluorophenyl)sulfanyl)methyl)-4-(2-thiophenylsulfonyl)-1-piperazinyl)phenyl)-2-propanol]: the IC50 in experiment [1] (setting [3]) worked out at 112 nM. For the same molecule, the EC50 in experiment [2] (setting [5]) was found to be 43 nM.

Regarding `CC(O)(c1ccc(N2CCN(S(=O)(=O)c3cccs3)C[C@@H]2CSc2ccc(F)cc2)cc1)C(F)(F)F` (mixture of isomers) [Example 190, 1,1,1-trifluoro-2-(4-((2R)-2-(((4-fluorophenyl)sulfanyl)methyl)-4-(2-thiophenylsulfonyl)-1-piperazinyl)phenyl)-2-propanol], the IC50 in experiment [1] (setting [3]) amounted to 30 nM. Also, the EC50 in experiment [2] (setting [5]) was found to be 15 nM.

In the case of `CC(O)(c1ccc(N2CCN(S(=O)(=O)c3cccs3)C[C@@H]2CNS(=O)(=O)c2ccccc2)cc1)C(F)(F)F` (mixture of isomers) [Example 193, N-(((2S)-4-(2-thiophenylsulfonyl)-1-(4-(2,2,2-trifluoro-1-hydroxy-1-methylethyl)phenyl)-2-piperazinyl)methyl)benzenesulfonamide], the IC50 in experiment [1] (setting [3]) amounted to 284 nM. The molecule also gave an EC50 in experiment [2] (setting [4]) of 374 nM.

Regarding `CC(C)N(C[C@H]1CN(S(=O)(=O)c2cccs2)CCN1c1ccc(C(C)(O)C(F)(F)F)cc1)C(C)C` (mixture of isomers) [Example 194, 2-(4-((2S)-2-((bis(1-methylethyl)amino)methyl)-4-(2-thiophenylsulfonyl)-1-piperazinyl)phenyl)-1,1,1-trifluoro-2-propanol], the half-maximal inhibitory concentration (IC50) in experiment [1] (setting [3]) was 205 nM. In experiment [2] (setting [4]), this molecule gave an EC50 of 179 nM.

For the molecule `CC(=O)N(C[C@H]1CN(S(=O)(=O)c2cccs2)CCN1c1ccc(C(C)(O)C(F)(F)F)cc1)C(C)C` (mixture of isomers) [Example 196, N-(1-methylethyl)-N-(((2S)-4-(2-thiophenylsulfonyl)-1-(4-(2,2,2-trifluoro-1-hydroxy-1-methylethyl)phenyl)-2-piperazinyl)methyl)acetamide], in experiment [1] (setting [3]), the IC50 turned out to be 466 nM. In addition, in experiment [2] (setting [5]), the EC50 came out at 391 nM.

On to `CC(C)N(C[C@H]1CN(S(=O)(=O)c2cccs2)CCN1c1ccc(C(C)(O)C(F)(F)F)cc1)S(=O)(=O)c1ccccc1` (mixture of isomers) [Example 197, N-(1-methylethyl)-N-(((2R)-4-(2-thiophenylsulfonyl)-1-(4-(2,2,2-trifluoro-1-hydroxy-1-methylethyl)phenyl)-2-piperazinyl)methyl)benzenesulfonamide], for which, in experiment [1] (setting [3]), the IC50 stood at 215 nM. For the same molecule, in experiment [2] (setting [5]), the EC50 is 80 nM.

Take `CC(C)N(C[C@H]1CN(S(=O)(=O)c2cccs2)CCN1c1ccc(C(C)(O)C(F)(F)F)cc1)S(=O)(=O)c1cccnc1` (mixture of isomers) [Example 198, N-(1-methylethyl)-N-(((2R)-4-(2-thiophenylsulfonyl)-1-(4-(2,2,2-trifluoro-1-hydroxy-1-methylethyl)phenyl)-2-piperazinyl)methyl)-3-pyridinesulfonamide]: the IC50 in experiment [1] (setting [3]) is 108 nM. Besides, in experiment [2] (setting [5]), the EC50 is 177 nM.

Take `CC(O)(c1ccc(N2CCN(S(=O)(=O)c3cccs3)C[C@@H]2CN(C2CC2)S(C)(=O)=O)cc1)C(F)(F)F` (mixture of isomers) [Example 200, N-cyclopropyl-N-(((2R)-4-(2-thiophenylsulfonyl)-1-(4-(2,2,2-trifluoro-1-hydroxy-1-methylethyl)phenyl)-2-piperazinyl)methyl)methanesulfonamide]: in experiment [1] (setting [3]), the IC50 was found to be 26 nM. The EC50 in experiment [2] (setting [5]) was determined as 39 nM.
